Experimental findings from patent US8557823B2, “Family of PFKFB3 inhibitors with anti-neoplastic activities” (Advanced Cancer Therapeutics, LLC, priority 2007, dated 2013) are described below.

Broadly, the IC50 is the concentration needed to halve the response being measured. Low values mean inhibition by little substance, high ones a need for much substance.

The subject of test [1] is HL-60 leukemia cells. The test can be described thus: In vitro growth inhibition, HL-60. In kind it is cell-based, human. Particulars: Homo sapiens, 50% of vehicle control cell growth. The protocol:
The K562, HL-60, MDA-MB231, and melanoma (CRL-11174) human cancer cell lines were purchased from ATCC (American Tissue Type Culture Collection, Manassas, Va., United States of America). HeLa, A549, Lewis Lung Carcinoma, MDA-MB231, and melanoma cells were grown in Dulbecco's Modified Eagle Medium (DMEM) (Hyclone, Logan, Utah, United States of America) supplemented with 10% fetal bovine serum (Hyclone, Logan, Utah, United States of America) and 50 μg/mL gentamicin sulfate (Invitrogen, Carlsbad, Calif., United States of America). The HL-60, K562, and Jurkat cell lines were grown in RPMI-1640 medium (Hyclone, Logan, Utah, United States of America) supplemented with 10% fetal bovine serum and 50 μg/mL gentamicin sulfate. […]
Cells were collected 48 hours post-treatment, and cell number and viability were determined by trypan blue exclusion. […]

Test [2] deals with MDA-MB231 human breast adenocarcinoma tumors. The test can be described thus: MDA-MB231 breast adenocarcinoma xenografts in Balb/c nude mice. Format: in vivo. The settings on record: 0.07 mg/g IP, three daily injections followed by three days off. The protocol: FIG. 7B is a graph showing the effects of 3PO treatment on the growth of established MDA-MB231 breast adenocarcinoma tumor zenografts in Balb/c athymic mice. Tumors were measured daily using blunt end Vernier calipers, and mice with established tumors (130-190 mg) were blindly randomized into either a DMSO control group (•, n=14) or a 3PO treatment group (∘, n=13). Experimental mice were weighed and given intraperitoneal (i.p.) injections of either 50 μL DMSO or 0.07 mg/g 3PO in 50 μL DMSO according to a cyclical dosing regimen of three sequential daily injections followed by three off days for the duration of the study (14 days). Arrows (↓) represent control or 3PO administrations. […]
(§1) Exponentially growing MDA-MB231 and HL-60 cells were collected in appropriate medium, washed twice and resuspended in PBS at a concentration of 20×10^7 cells/mL. […] Body weight and tumor growth were monitored daily throughout the study. Tumor masses were determined by measurement with Vernier calipers using the formula: mass (mg)=[width (mm^2)×length (mm)]/2. […]
(§2) The first tumor model tested consisted of mouse Lewis Lung Carcinoma xenografts grown in C57/Blk6 mice. For this study, mice were given IP injections of either DMSO or the calculated dose of 1 once daily for the duration of the study (14 days). […]

The test system of test [3] is Lewis Lung Carcinoma xenografts. The test is described as follows: Lewis Lung Carcinoma xenografts in C57/Blk6 mice. In kind it is in vivo. The settings on record: 0.07 mg/g IP once daily, 14 days. As for the experimental part:
FIG. 7A is a graph showing the effects of 3PO treatment on the growth of Lewis Lung Carcinoma tumor xenografts in C57/Blk6 mice. Tumors were measured daily using blunt end Vernier calipers, and mice with established tumors (130-190 mg) were blindly randomized into either a DMSO control group (•, n=11) or a 3PO treatment group (∘, n=14). Experimental mice were weighed and given daily intraperitoneal (i.p.) injections of either 50 μL DMSO or 0.07 mg/g 3PO in 50 μL DMSO at the indicated time points. Arrows (↓) represent control or 3PO daily administrations. Statistically significant difference between DMSO and 3PO groups was obtained after initial injection (Day 2, p-value<0.0003).
as §1, §2

`O=C(/C=C/c1cccnc1)c1ccncc1` [Compound 1, 3-(3-pyridinyl)-1-(4-pyridinyl)-2-propen-1-one] had a 50% inhibitory concentration (IC50) in test [1] of 4.5 µM. For the same molecule, the “maximum inhibition of xenograft growth compared to DMSO controls” value in test [2] was determined as 66%. For the same molecule, the “suppression of xenograft growth compared to DMSO control” value in test [3] came to 73%.
